In ChEMBL document CHEMBL5150041, “Discovery of novel N-(1-benzyl-1H-imidazol-2-yl)amide derivatives as melanocortin 1 receptor agonists” (Bioorg Med Chem Lett, 2022):

Experiments:
[1] = molecular target: T1, Melanocyte-stimulating hormone receptor (Homo sapiens, UniProt Q01726); test: Agonist activity at human MC1R assessed as increase in alpha-MSH induced cAMP level at 10 uM relative to control; type: functional
Target sequence in this assay (Q01726 whole entry, looked up): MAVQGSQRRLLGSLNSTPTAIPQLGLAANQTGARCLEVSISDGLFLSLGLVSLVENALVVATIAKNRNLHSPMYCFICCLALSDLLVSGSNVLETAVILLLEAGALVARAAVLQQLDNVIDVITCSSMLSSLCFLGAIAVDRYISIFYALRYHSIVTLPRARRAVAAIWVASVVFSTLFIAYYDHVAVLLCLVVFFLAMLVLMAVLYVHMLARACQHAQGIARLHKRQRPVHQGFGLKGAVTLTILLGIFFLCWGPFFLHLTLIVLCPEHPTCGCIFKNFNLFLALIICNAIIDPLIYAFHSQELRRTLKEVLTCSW

[2] = molecular target: T1, Melanocyte-stimulating hormone receptor; test: Agonist activity at human MC1R assessed as increase in alpha-MSH induced cAMP level; type: functional
Target sequence in this assay (Q01726 whole entry): as the sequence (Q01726 whole entry, looked up) above

[3] = molecular target: T1, Melanocyte-stimulating hormone receptor; test: Intrinsic agonist activity at human MC1R assessed as increase in alpha-MSH induced cAMP level by measuring maximum response relative to control; type: functional; conditions: filed as agonist
Target sequence in this assay (Q01726 whole entry, looked up): as above

[4] = Metabolic stability in human assessed as intrinsic clearance measured per mg protein; type: ADME

Row | SMILES | Activity [1] | EC50 [2] | Intrinsic activity [3] | CL [4] | Activity ([1]; filed as agonist)
1 | CC(C)(C)N1C[C@@H](C(=O)Nc2nccn2Cc2ccc(Cl)cc2)[C@H](c2ccc(F)cc2F)C1 | 18% | > 10000 nM |  |  | 
2 | CC(C)(C)N1C[C@@H](C(=O)Nc2nccn2Cc2ccccc2N2CCC(C(N)=O)CC2)[C@H](c2ccc(F)cc2F)C1.Cl |  | 386 nM | 80% | 450 µL/min | 
3 | Cn1c(NC(=O)[C@@H]2CN(C(C)(C)C)C[C@H]2c2ccc(F)cc2F)nc2ccccc21 | 2.5% | > 10000 nM |  |  | 
4 | CC(C)(C)N1C[C@@H](C(=O)Nc2nccn2Cc2ccccc2-c2ccccc2)[C@H](c2ccc(F)cc2F)C1 |  | 527 nM | 79% | 860 µL/min | 
5 | CC(C)(C)N1C[C@@H](C(=O)Nc2ccccc2Cc2ccccc2)[C@H](c2ccc(F)cc2F)C1 | 2.8% | > 10000 nM |  |  | 
6 | CC(C)(C)N1C[C@@H](C(=O)Nc2nccn2Cc2ccccc2Cl)[C@H](c2ccc(F)cc2F)C1 |  | 1270 nM | 65% |  | 
7 | CC(C)(C)N1C[C@@H](C(=O)Nc2nccn2Cc2ccccc2N2CCOCC2)[C@H](c2ccc(F)cc2F)C1.Cl |  | 219 nM | 86% | 660 µL/min | 
8 | CC(C)(C)N1C[C@@H](C(=O)Nc2nc3ccccc3n2CCc2ccccc2)[C@H](c2ccc(F)cc2F)C1 | 7.5% | > 10000 nM |  |  | 
9 | CC(C)(C)N1C[C@@H](C(=O)Nc2nccn2Cc2ccc(C(F)(F)F)cc2N2CCC(C(=O)O)CC2)[C@H](c2ccc(F)cc2F)C1 |  | 77 nM | 158% | 25 µL/min | 
10 | CC(C)(C)N1C[C@@H](C(=O)Nc2nc3ccccc3n2-c2ccccc2)[C@H](c2ccc(F)cc2F)C1 | 7% | > 10000 nM |  |  | 
11 | CC(C)(C)N1C[C@@H](C(=O)Nc2nc3ccccc3n2Cc2ccccc2)[C@H](c2ccc(F)cc2F)C1 |  |  |  |  | 53%
12 | CC(C)(C)N1C[C@@H](C(=O)Nc2ncnn2Cc2ccccc2)[C@H](c2ccc(F)cc2F)C1 | 3.7% | > 10000 nM |  |  | 
13 | CC(C)(C)N1C[C@@H](C(=O)Nc2nccn2Cc2ccccc2N2CCC(C(=O)O)CC2)[C@H](c2ccc(F)cc2F)C1 |  | 460 nM | 104% | < 10 µL/min | 
14 | CC(C)(C)N1C[C@@H](C(=O)Nc2nccn2Cc2ccccc2)[C@H](c2ccc(F)cc2F)C1 |  | 4660 nM | 54% |  | 
15 | Cc1ccc(Cn2ccnc2NC(=O)[C@@H]2CN(C(C)(C)C)C[C@H]2c2ccc(F)cc2F)c(N2CCC(C(=O)O)CC2)c1 |  | 318 nM | 101% | 28 µL/min | 
16 | CC(C)(C)N1C[C@@H](C(=O)Nc2nccn2Cc2cccc(Cl)c2)[C@H](c2ccc(F)cc2F)C1 |  | 1270 nM | 50% |  | 
17 | CC(C)(C)N1C[C@@H](C(=O)Nc2nccn2Cc2ccccc2N2CCC(CC(=O)O)CC2)[C@H](c2ccc(F)cc2F)C1 |  | 1980 nM |  | 39 µL/min | 64%
18 | CC(C)(C)N1C[C@@H](C(=O)Nc2nccn2Cc2ccccc2N2CCCCC2)[C@H](c2ccc(F)cc2F)C1.Cl |  | 339 nM | 77% | 610 µL/min | 
